Data: patent US20240246964A1 (Arbutus Biopharma Corporation, priority 2021, published 2024)

How the values were obtained:
[1] = target: PD-L1 His protein / PD-1 Fc protein (Homo sapiens (Human), UniProt Q9NZQ7); test: HTRF Assay (PD-1/PD-L1 interaction); assay type: binding; settings: PD-L1 His 6 nM, PD-1 Fc 6 nM
[2] = target: human PD-L1 (Homo sapiens (Human), UniProt Q9NZQ7); test: T cell activation luciferase reporter cell culture system (T Cell Activation Assay); assay type: cell-based; settings: luciferase reporter assay; PD-L1 aAPC/CHO-K1 cells with PD-1 effector Jurkat T cells
Sequence of human PD-L1 (Q9NZQ7 19-290): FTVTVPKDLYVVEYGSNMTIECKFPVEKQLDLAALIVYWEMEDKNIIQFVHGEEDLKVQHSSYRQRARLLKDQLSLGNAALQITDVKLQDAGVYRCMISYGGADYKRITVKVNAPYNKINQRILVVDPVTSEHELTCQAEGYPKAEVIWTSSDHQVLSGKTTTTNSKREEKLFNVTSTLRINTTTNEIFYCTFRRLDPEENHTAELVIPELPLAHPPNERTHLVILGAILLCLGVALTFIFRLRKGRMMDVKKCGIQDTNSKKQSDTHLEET

Sequence of PD-L1 His protein / PD-1 Fc protein (Q9NZQ7 19-238): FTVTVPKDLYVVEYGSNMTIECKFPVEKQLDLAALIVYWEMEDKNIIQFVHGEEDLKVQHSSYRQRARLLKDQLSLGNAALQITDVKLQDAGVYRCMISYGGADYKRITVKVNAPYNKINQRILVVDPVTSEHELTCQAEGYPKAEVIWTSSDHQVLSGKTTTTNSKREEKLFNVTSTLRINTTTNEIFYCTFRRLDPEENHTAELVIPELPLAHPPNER

| SMILES | IC50 [1] | EC50 [2] |
| --- | --- | --- |
| COc1cc(-c2ncnc(-c3cccc(-c4ccc(CNC[C@@H]5CCC(=O)N5)c(OC)n4)c3Cl)c2Cl)ccc1CNC[C@@H]1CCC(=O)N1 [Example 543, (S)-5-((((6-(2-chloro-3-(5-chloro-6-(3-methoxy-4-(((((S)-5-oxopyrrolidin-2-yl)methyl)amino)methyl)phenyl)pyrimidin-4-yl)phenyl)-2-methoxypyridin-3-yl)methyl)amino)methyl)pyrrolidin-2-one] | 0.29 nM | 17.5 nM |
| COCCC(=O)N1CCC(NCc2ccc(-c3nccc(-c4cccc(-c5ccc(CNC6CCN(C(=O)CCOC)CC6)c(OC)n5)c4Cl)c3Cl)cc2OC)CC1 [Example 546, 1-(4-(((6-(2-Chloro-3-(3-chloro-2-(3-methoxy-4-(((1-(3-methoxypropanoyl)piperidin-4-yl)amino)methyl)phenyl)pyridin-4-yl)phenyl)-2-methoxypyridin-3-yl)methyl)amino)piperidin-1-yl)-3-methoxypropan-1-one] | 1.25 nM | 19.5 nM |
| COc1nc(-c2ccnc(-c3cccc4c3CC[C@@H]4Oc3nc(OC)c(CNC4CCN(C(C)=O)CC4)cc3C(F)(F)F)c2Cl)ccc1CN1CC2(CNC(=O)C2)C1 [Example 551, (S)-2-((2′-(1-((5-(((1-Acetylpiperidin-4-yl)amino)methyl)-6-methoxy-3-(trifluoromethyl)pyridin-2-yl)oxy)-2,3-dihydro-1H-inden-4-yl)-3′-chloro-6-methoxy-[2,4′-bipyridin]-5-yl)methyl)-2,6-diazaspiro[3.4]octan-7-one] | 0.32 nM | 182 nM |
| COc1nc(-c2ccnc(-c3cccc4c3CC[C@@H]4Oc3nc(OC)c(CNC4CCOCC4)cc3C(F)(F)F)c2Cl)ccc1CN1CC2(CNC(=O)C2)C1 [Example 552, (S)-2-((3′-Chloro-6-methoxy-2′-(1-((6-methoxy-5-(((tetrahydro-2H-pyran-4-yl)amino)methyl)-3-(trifluoromethyl)pyridin-2-yl)oxy)-2,3-dihydro-1H-inden-4-yl)-[2,4′-bipyridin]-5-yl)methyl)-2,6-diazaspiro[3.4]octan-7-one] | 0.25 nM | 144 nM |
| COc1cc(-c2nccc(-c3cccc(-c4ccc5c(CNC6CCOCC6)cn(C)c5n4)c3Cl)c2Cl)ccc1CNC1CCN(C(C)=O)CC1 [Example 556, 1-(4-((4-(3-Chloro-4-(2-chloro-3-(1-methyl-3-(((tetrahydro-2H-pyran-4-yl)amino)methyl)-1H-pyrrolo[2,3-b]pyridin-6-yl)phenyl)pyridin-2-yl)-2-methoxybenzyl)amino)piperidin-1-yl)ethan-1-one] | 1.22 nM | 222 nM |
| COc1cc(-c2nccc(-c3cccc(-c4ccc5c(CNCCO)cn(C)c5n4)c3Cl)c2Cl)ccc1CNC1CCN(C(C)=O)CC1 [Example 559, 1-(4-((4-(3-Chloro-4-(2-chloro-3-(3-(((2-hydroxyethyl)amino)methyl)-1-methyl-1H-pyrrolo[2,3-b]pyridin-6-yl)phenyl)pyridin-2-yl)-2-methoxybenzyl)amino)piperidin-1-yl)ethan-1-one] | 1.61 nM | 73.2 nM |
| COc1cc(-c2nccc(-c3cccc(-c4cnc(CNC5CCN(C(C)=O)CC5)c(OC)c4)c3Cl)c2Cl)ccc1CNC1CCN(C(C)=O)CC1 [Example 565, 1-(4-(((5-(3-(2-(4-(((1-acetylpiperidin-4-yl)amino)methyl)-3-methoxyphenyl)-3-chloropyridin-4-yl)-2-chlorophenyl)-3-methoxypyridin-2-yl)methyl)amino)piperidin-1-yl)ethan-1-one] | 1.72 nM | 1040 nM |
| COc1cc(-c2nccc(-c3cccc(-c4ccc(CN5CC6(COC6)C5)c(OC)n4)c3C(F)(F)F)c2Cl)ccc1CN1CC2(COC2)C1 [Example 578, 6-(4-(4-(3-(5-((2-Oxa-6-azaspiro[3.3]heptan-6-yl)methyl)-6-methoxypyridin-2-yl)-2-(trifluoromethyl)phenyl)-3-chloropyridin-2-yl)-2-methoxybenzyl)-2-oxa-6-azaspiro[3.3]heptane] | 70.3 nM | ≥ 10000 nM |
| COc1nc(-c2cccc(-c3ccnc(-c4ccc5c(c4)S(=O)(=O)CCN(C[C@@H]4CCC(=O)N4)C5)c3Cl)c2Cl)ccc1CNC[C@@H]1CCC(=O)N1 [Example 582, (S)-5-((((6-(2-Chloro-3-(3-chloro-2-(1,1-dioxido-4-(((S)-5-oxopyrrolidin-2-yl)methyl)-2,3,4,5-tetrahydrobenzo[f][1,4]thiazepin-8-yl)pyridin-4-yl)phenyl)-2-methoxypyridin-3-yl)methyl)amino)methyl)pyrrolidin-2-one] | 1.58 nM | 1040 nM |
| CCOc1cc(-c2nccc(-c3cccc(-c4ccc(CNC5CCN(C(C)=O)CC5)c(OC)n4)c3Cl)c2Cl)cn2nc(CN[C@H]3C[C@](C)(O)C3)nc12 [Example 584, 1-(4-(((6-(2-Chloro-3-(3-chloro-2-(8-ethoxy-2-((((1r,3r)-3-hydroxy-3-methylcyclobutyl)amino)methyl)-[1,2,4]triazolo[1,5-a]pyridin-6-yl)pyridin-4-yl)phenyl)-2-methoxypyridin-3-yl)methyl)amino)piperidin-1-yl)ethan-1-one] | 2.21 nM | ≥ 10000 nM |
| COc1cc(-c2nccc(-c3cccc(-c4ccc(CNCCCF)c(OC)n4)c3C(F)(F)F)c2Cl)ccc1CNCCCF [Example 587, N-((6-(3-(3-Chloro-2-(4-(((3-fluoropropyl)amino)methyl)-3-methoxyphenyl)pyridin-4-yl)-2-(trifluoromethyl)phenyl)-2-methoxypyridin-3-yl)methyl)-3-fluoropropan-1-amine] | 160 nM | ≥ 10000 nM |
| COc1cc(-c2nccc(-c3cccc(-c4ccc(CNC56CC(CO)(C5)C6)c(OC)n4)c3Cl)c2Cl)ccc1CNC12CC(CO)(C1)C2 [Example 591, (3-(((6-(2-chloro-3-(3-chloro-2-(4-(((3-(hydroxymethyl)bicyclo[1.1.1]pentan-1-yl)amino)methyl)-3-methoxyphenyl)pyridin-4-yl)phenyl)-2-methoxypyridin-3-yl)methyl)amino)bicyclo[1.1.1]pentan-1-yl)methanol] | 24.5 nM | 469 nM |
| COc1cc(-c2ncnc(-c3cccc(-c4ccc(CN[C@H]5C[C@H](O)C5)c(OC)n4)c3Cl)c2Cl)ccc1CN[C@H]1C[C@H](O)C1 [Example 593, (1r,3r)-3-(((6-(2-Chloro-3-(5-chloro-6-(4-((((1r,3r)-3-hydroxycyclobutyl)amino)methyl)-3-methoxyphenyl)pyrimidin-4-yl)phenyl)-2-methoxypyridin-3-yl)methyl)amino)cyclobutan-1-ol] | 0.16 nM | 104 nM |
| COc1nc(-c2cccc(-c3ccnc(-c4cc(OC)c5nc(CN[C@H]6CC[C@H](O)CC6)nn5c4)c3Cl)c2Cl)ccc1CNC1CCN(C(C)=O)CC1 [Example 595, 1-(4-(((6-(2-Chloro-3-(3-chloro-2-(2-((((1r,4r)-4-hydroxycyclohexyl)amino)methyl)-8-methoxy-[1,2,4]triazolo[1,5-a]pyridin-6-yl)pyridin-4-yl)phenyl)-2-methoxypyridin-3-yl)methyl)amino)piperidin-1-yl)ethan-1-one] | 0.38 nM | 211 nM |
